These results are taken from patent US12358920B2, “Substituted pyrrolo[2,3-d]pyrimidines as selective CDK 4/6 inhibitors” (LUNELLA BIOTECH, INC., priority 2019, dated 2025).

Each structure is given as a SMILES string. Where only a bound is given, the exact number is not on record here.

Data set [1] concerns MCF7. Put plainly: Mammosphere formation assay (3D-mammosphere assay). Format: cell-based, human. Conditions: for SI (mammosphere/monolayer MCF7): mammosphere selectivity index, ratio between IC50 values in the 3D and 2D assays against MCF7; for inhibition of MCF7 cells in the mammosphere assay compared to parent compound: concentrations from 1 μM to 100 μM. The source says:
As used in the tables, “IC50 (MCF7 mammosphere)” refers to the half maximal inhibitory concentration in the 3D-mammosphere assay, using the ER+ breast cancer cell line, MCF7. The term “IC50 (MCF7 monolayer)” refers to the half maximal inhibitory concentration in the 2D-cell viability assay, using the ER+ breast cancer cell line, MCF7. The term “IC50 (BJ1 monolayer)” refers to the half maximal inhibitory concentration in the 2D-cell viability assay, using the immortalized non-tumoral fibroblast cell line, hTERT-BJ1. The term “SI (mammosphere/monolayer MCF7)” refers to the mammosphere selectivity index, a ratio between IC50 values comparing the biological activity in the 3D and 2D assays against MCF7. The term “SI (BJ1/MCF7 monolayer)” refers to the cancer selectivity index, a ratio between IC50 values comparing the biological activity in the cell viability assays against MCF7 and hTERT-BJ1.
FIGS. 1-3 are dose-response curves for various compounds described herein, using the mammosphere assay. The assay was performed using the MCF7 cell line. The curves are plotted as a mean of two independent experiments, and the standard deviation for each point is represented by vertical bars. The inhibition percentage is shown as a function of the log of the concentration (μM). […] Similar effects are expected for compounds having the general formula [1D].
With respect to cell culture and reagents, the human breast adenocarcinoma cell line (MCF-7) was from the American Type Culture Collection (ATCC). hTERT-BJ1 cells were from Clontech, Inc. MCF-7 and hTERT-BJ1 cells were grown in DMEM supplemented with 10% fetal bovine serum, GlutaMAX and 1% penicillin-streptomycin and incubated at 37C in a humidified 5% CO2 incubator. The medium was changed 2-3 times/week.
Mammosphere formation assay: A single cell suspension was prepared using enzymatic (lx Trypsin-EDTA, Sigma Aldrich, cat. #T3924), and manual disaggregation (25 gauge needle). Five thousand cells were plated with in mammosphere medium (DMEM-F12/B27/20 ng/ml EGF/PenStrep), under non-adherent conditions, in six wells plates coated with 2-hydroxyethylmethacrylate (poly-HEMA, Sigma, cat. #P3932). Cells were grown for 5 days and maintained in a humidified incubator at 37° C. at an atmospheric pressure in 5% (v/v) carbon dioxide/air. After 5 days, 3D spheroids with a diameter greater than 50 μm were counted using a microscope, fitted with a graticule eye-piece, and the percentage of cells which formed spheroids was calculated and normalized to one (1=100% MFE; mammosphere forming efficiency). Mammosphere assays were performed in triplicate and repeated three times independently.

Data set [2] concerns hTERT-BJ1. Description: Hoechst-based 2D-cell viability assay, hTERT-BJ1 monolayer. Further details: species or system human. Particulars: for toxicity in the non-tumoral cell line hTERT-BJ1: up to the concentration of 90 μM. An excerpt:
As used in the tables, “IC50 (MCF7 mammosphere)” refers to the half maximal inhibitory concentration in the 3D-mammosphere assay, using the ER+ breast cancer cell line, MCF7. The term “IC50 (MCF7 monolayer)” refers to the half maximal inhibitory concentration in the 2D-cell viability assay, using the ER+ breast cancer cell line, MCF7. The term “IC50 (BJ1 monolayer)” refers to the half maximal inhibitory concentration in the 2D-cell viability assay, using the immortalized non-tumoral fibroblast cell line, hTERT-BJ1. The term “SI (mammosphere/monolayer MCF7)” refers to the mammosphere selectivity index, a ratio between IC50 values comparing the biological activity in the 3D and 2D assays against MCF7. The term “SI (BJ1/MCF7 monolayer)” refers to the cancer selectivity index, a ratio between IC50 values comparing the biological activity in the cell viability assays against MCF7 and hTERT-BJ1. With respect to cell culture and reagents, the human breast adenocarcinoma cell line (MCF-7) was from the American Type Culture Collection (ATCC). hTERT-BJ1 cells were from Clontech, Inc. MCF-7 and hTERT-BJ1 cells were grown in DMEM supplemented with 10% fetal bovine serum, GlutaMAX and 1% penicillin-streptomycin and incubated at 37C in a humidified 5% CO2 incubator. The medium was changed 2-3 times/week. A Hoechst-based viability assay was used to characterize the selectivity of compounds according to the present approach, for the preferential targeting of cancer cells. Briefly, MCF7 cell monolayers were treated with a compound at concentrations ranging from 1 μM to 100 μM, for a period of one day. Cell viability was assessed using Hoechst 33342, a nuclear dye that stains DNA in live cells. The viability of normal human fibroblasts (hTERT-BJ1) treated with the compounds described herein was also assessed in parallel. Quantitation was performed with a plate-reader.

Data set [3] concerns MCF7. Put plainly: Hoechst-based 2D-cell viability assay, MCF7 monolayer. Further details: species or system human. The source says: As used in the tables, “IC50 (MCF7 mammosphere)” refers to the half maximal inhibitory concentration in the 3D-mammosphere assay, using the ER+ breast cancer cell line, MCF7. The term “IC50 (MCF7 monolayer)” refers to the half maximal inhibitory concentration in the 2D-cell viability assay, using the ER+ breast cancer cell line, MCF7. The term “IC50 (BJ1 monolayer)” refers to the half maximal inhibitory concentration in the 2D-cell viability assay, using the immortalized non-tumoral fibroblast cell line, hTERT-BJ1. The term “SI (mammosphere/monolayer MCF7)” refers to the mammosphere selectivity index, a ratio between IC50 values comparing the biological activity in the 3D and 2D assays against MCF7. The term “SI (BJ1/MCF7 monolayer)” refers to the cancer selectivity index, a ratio between IC50 values comparing the biological activity in the cell viability assays against MCF7 and hTERT-BJ1. […] Cell viability was assessed using Hoechst 33342, a nuclear dye that stains DNA in live cells. The viability of normal human fibroblasts (hTERT-BJ1) treated with the compounds described herein was also assessed in parallel. Quantitation was performed with a plate-reader.

On to `CC(=O)c1c(C)c2cnc(Nc3ccc(N4CCNCC4)cn3)nc2n(C2CCCC2)c1=O` [Palbociclib, 6-acetyl-8-cyclopentyl-5-methyl-2-(5-piperazin-1-yl-pyridin-2-ylamino)-8H-pyrido[2,3-d]pyrimidin-7-one, reference compound], for which, in data set [1], the “SI (mammosphere/monolayer MCF7)” value is listed as “non-selective”. For the same compound, the “toxicity in the non-tumoral cell line hTERT-BJ1” value in data set [2] is listed as “non-toxic”.
With `CCCCCCCCCCCCCC(=O)N1CCN(c2ccc(Nc3ncc4c(C)c(C(C)=O)c(=O)n(C5CCCC5)c4n3)nc2)CC1` [Compound [2C], 6-acetyl-8-cyclopentyl-5-methyl-2-[[5-(4-tetradecanoylpiperazin-1-yl)-2-pyridyl]amino]pyrido[2,3-d]pyrimidin-7-one], the “toxicity in the 2D-cell viability assay” value in data set [3] (MCF7 monolayer, up to a concentration of 30 μM) is “non-toxic”. The “inhibition of MCF7 cells in the mammosphere assay compared to parent compound” value in data set [1] was “remarkably improved inhibition”. Besides, the “toxicity in the non-tumoral cell line hTERT-BJ1” value in data set [2] is listed as “non-toxic”.
In the case of `CCCCCCCCCCCCCC(=O)N1CCN(c2ccc(Nc3ncc4cc(C(=O)N(C)C)n(C5CCCC5)c4n3)nc2)CC1` [Compound [1C], 7-cyclopentyl-N,N-dimethyl-2-[[5-(4-tetradecanoylpiperazin-1-yl)-2-pyridyl]amino]pyrrolo[2,3-d]pyrimidine-6-carboxamide], the “potency against MCF7 cells compared to parent compound (dose-response curves, FIG. 4)” value in data set [3] (Hoechst staining assay, MCF7, each concentration) is “more potent”. Moreover, the “improvement in potency in the 3D-mammosphere assay compared to the parent compound” value in data set [1] (IC50 ratio vs. Ribociclib) is 7 fold. The “inhibition of MCF7 cells in the mammosphere assay compared to parent compound” value in data set [1] is reported as “remarkably improved inhibition”. In addition, the “toxicity in the non-tumoral cell line hTERT-BJ1” value in data set [2] is “non-toxic”.
For `CCN1CCN(Cc2ccc(Nc3ncc(F)c(-c4cc(F)c5nc(C)n(C(C)C)c5c4)n3)nc2)CC1` [Abemaciclib, N-[5-[(4-ethylpiperazin-1-yl)methyl]pyridin-2-yl]-5-fluoro-4-(7-fluoro-2-methyl-3-propan-2-ylbenzimidazol-5-yl)pyrimidin-2-amine, reference compound], in data set [1], the “SI (mammosphere/monolayer MCF7)” value is listed as above 250. Further, in data set [2] (Homo sapiens, Table 3, unit inferred, 2D-cell viability assay, hTERT-BJ1), the IC50 (in general, the concentration needed to halve the response being measured) is 30 ± 6 µM.
Turning to `CN(C)C(=O)c1cc2cnc(Nc3ccc(N4CCNCC4)cn3)nc2n1C1CCCC1` [Ribociclib, 7-cyclopentyl-N,N-dimethyl-2-[(5-piperazin-1-ylpyridin-2-yl)amino]pyrrolo[2,3-d]pyrimidine-6-carboxamide], in data set [2] (Hoechst staining assay, hTERT-BJ1), the “potency on hTERT-BJ1 compared to Compound [1C] (dose-response curves, FIG. 7)” value is reported as “more potent at most concentrations tested”. In addition, in data set [2], the “toxicity in the non-tumoral cell line hTERT-BJ1” value was “non-toxic”.
